Here are results for four compounds from patent publication US9045482B2, “Pyrido[4,3-B]indoles and methods of use” (Medivation Technologies, Inc., priority 2009, dated 2015).

SMILES strings stand for the structures.

Holding throughout (conditions): 0.1 μM ligand concentration
The target in assay [1] is T1, human recombinant serotonin (5-Hydroxytryptamine) 5-HT2A receptor (Homo sapiens, UniProt P28223).
T1 construct: expressed in transfected cells; host or cells: Chinese hamster ovary (CHO-K1) cells
T1 sequence (P28223 whole entry): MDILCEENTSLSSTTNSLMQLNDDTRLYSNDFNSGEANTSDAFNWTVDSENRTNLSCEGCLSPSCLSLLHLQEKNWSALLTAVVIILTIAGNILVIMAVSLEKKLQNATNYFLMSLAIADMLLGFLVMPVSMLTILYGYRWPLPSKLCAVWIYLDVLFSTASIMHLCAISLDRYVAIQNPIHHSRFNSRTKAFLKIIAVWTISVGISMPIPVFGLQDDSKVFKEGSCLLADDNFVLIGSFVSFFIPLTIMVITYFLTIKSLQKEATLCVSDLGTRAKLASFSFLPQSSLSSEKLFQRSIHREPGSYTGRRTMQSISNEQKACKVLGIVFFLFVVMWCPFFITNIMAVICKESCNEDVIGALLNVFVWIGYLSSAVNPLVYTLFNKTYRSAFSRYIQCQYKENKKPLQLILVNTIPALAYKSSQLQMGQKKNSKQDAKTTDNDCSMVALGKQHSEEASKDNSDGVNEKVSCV
The assay is described as follows: Serotonin 5-HT2A radioligand binding ([3H]Ketanserin). On the procedure:
(1997), 68:1998] in a 50 mM Tris-HCl buffer, pH 7.4, was used. Compounds of the invention were incubated with 0.5 nM [^3H]Ketanserin for 60 min at 25° C. Non-specific binding was estimated in the presence of 1 μM Mianserin. Receptor proteins were filtered and washed, the filters were then counted to determine [^3H]Ketanserin specifically bound. Compounds were screened at 1 μM or lower, using 1% DMSO as vehicle. Biochemical assay results are presented as the percent inhibition of specific binding in Table 4.

Assay [2] addresses human recombinant serotonin (5-Hydroxytryptamine) 5-HT7 receptor (Homo sapiens, UniProt P34969). Kind of assay: Serotonin 5-HT7 radioligand binding ([3H]LSD). The procedure: Compounds of invention were incubated with 5.5 nM [^3H]Lysergic acid diethylamide (LSD) for 2 h at 25° C. […] Receptor proteins were filtered and washed, the filters were then counted to determine [^3H]LSD specifically bound. Compounds were screened at 1 μM or lower, using 1% DMSO as vehicle. Biochemical assay results are presented as the percent inhibition of specific binding in Table 4.

Assay [3] concerns the target T2, human recombinant serotonin (5-Hydroxytryptamine) 5-HT6 receptor (Homo sapiens, UniProt P50406).
T2 construct: expressed in transfected cells; host or cells: human HeLa cells
The assay is described as follows: Serotonin 5-HT6 radioligand binding ([3H]LSD). The procedure: Compounds of the invention were incubated with 1.5 nM [3H]Lysergic acid diethylamide (LSD) for 120 min at 37° C. […] Receptor proteins were filtered and washed, the filters were then counted to determine [3H]LSD specifically bound. Compounds were screened at 1 μM or lower, using 1% DMSO as vehicle. Biochemical assay results are presented as the percent inhibition of specific binding in Table 4.

Sequence of human recombinant serotonin (5-Hydroxytryptamine) 5-HT7 receptor (P34969 whole entry): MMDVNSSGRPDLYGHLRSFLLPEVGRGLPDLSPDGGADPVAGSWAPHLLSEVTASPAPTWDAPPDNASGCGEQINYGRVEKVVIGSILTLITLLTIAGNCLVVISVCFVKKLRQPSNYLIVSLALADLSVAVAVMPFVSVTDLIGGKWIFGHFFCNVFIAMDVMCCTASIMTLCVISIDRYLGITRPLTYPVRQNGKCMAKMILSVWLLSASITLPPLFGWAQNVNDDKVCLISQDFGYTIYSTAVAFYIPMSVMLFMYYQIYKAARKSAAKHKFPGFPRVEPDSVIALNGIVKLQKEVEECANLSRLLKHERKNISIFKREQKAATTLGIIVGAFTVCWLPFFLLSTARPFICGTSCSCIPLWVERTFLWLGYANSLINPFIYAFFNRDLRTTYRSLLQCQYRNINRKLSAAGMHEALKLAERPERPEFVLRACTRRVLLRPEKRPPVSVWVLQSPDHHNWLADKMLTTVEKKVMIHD
T2 sequence (P50406 whole entry): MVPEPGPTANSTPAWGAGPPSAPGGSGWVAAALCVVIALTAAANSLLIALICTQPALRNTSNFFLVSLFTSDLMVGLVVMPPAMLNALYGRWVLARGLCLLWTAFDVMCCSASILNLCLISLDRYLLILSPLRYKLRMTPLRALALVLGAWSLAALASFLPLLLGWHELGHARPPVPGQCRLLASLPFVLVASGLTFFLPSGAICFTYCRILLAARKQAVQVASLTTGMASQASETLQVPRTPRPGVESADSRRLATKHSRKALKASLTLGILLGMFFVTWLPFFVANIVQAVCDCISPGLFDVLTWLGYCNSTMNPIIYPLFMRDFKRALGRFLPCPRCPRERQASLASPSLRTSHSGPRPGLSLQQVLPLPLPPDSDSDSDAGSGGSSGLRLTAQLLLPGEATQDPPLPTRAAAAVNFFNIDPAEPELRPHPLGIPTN

As to `FC(F)(F)c1ccc(CCn2c3c(c4cccnc42)C2CCCN2CC3)cn1` (stereo not drawn) [Compound 40, 7-(2-(6-(trifluoromethyl)pyridin-3-yl)ethyl)-2,3,5,6,7,11c-hexahydro-1H-pyrido[3′,2′:4,5]pyrrolo[2,3-g]indolizine], the “Percent Inhibition of ligand binding Serotonin 5-HT2A” value in assay [1] is reported as 6%. In assay [2], the “Percent Inhibition of ligand binding Serotonin 5-HT7” value was 10%. In addition, the “Percent Inhibition of ligand binding Serotonin 5-HT6” value in assay [3] is 1%.

With `Cc1cnc2c(c1)c1c(n2CCc2ccc(C(F)(F)F)nc2)CCN2CCCC12` (stereo not drawn) [Compound 43, 10-methyl-7-(2-(6-(trifluoromethyl)pyridin-3-yl)ethyl)-2,3,5,6,7,11c-hexahydro-1H-pyrido[3′,2′:4,5]pyrrolo[2,3-g]indolizine], the “Percent Inhibition of ligand binding Serotonin 5-HT2A” value in assay [1] is recorded as 7%. Further, the “Percent Inhibition of ligand binding Serotonin 5-HT7” value in assay [2] came to 22%. In addition, the “Percent Inhibition of ligand binding Serotonin 5-HT6” value in assay [3] is listed as 5%.

For `Cc1cnc2c(c1)c1c(n2CCc2ccc(C(F)(F)F)nc2)CC2CCCN2C1` (stereo not drawn) [Compound 44, 3-methyl-11-(2-(6-(trifluoromethyl)pyridin-3-yl)ethyl)-7,8,9,9a,10,11-hexahydro-5H-pyrido[3′,2′:4,5]pyrrolo[3,2-f]indolizine], the “Percent Inhibition of ligand binding Serotonin 5-HT2A” value in assay [1] was 65%. Also, the “Percent Inhibition of ligand binding Serotonin 5-HT7” value in assay [2] came out at 24%. Moreover, the “Percent Inhibition of ligand binding Serotonin 5-HT6” value in assay [3] stood at 9%.

Turning to `FC(F)(F)c1ccc(CCn2c3c(c4cccnc42)CN2CCCC2C3)cn1` (stereo not drawn) [Compound 39, 11-(2-(6-(trifluoromethyl)pyridin-3-yl)ethyl)-7,8,9,9a,10,11-hexahydro-5H-pyrido[3′,2′:4,5]pyrrolo[3,2-f]indolizine], in assay [1], the “Percent Inhibition of ligand binding Serotonin 5-HT2A” value came out at 24%. Further, the “Percent Inhibition of ligand binding Serotonin 5-HT7” value in assay [2] came out at 2%. Moreover, in assay [3], the “Percent Inhibition of ligand binding Serotonin 5-HT6” value is on record as −5%.
